Measurements reported in the supplement of paper PMC6965134.
± gives the standard deviation of the averaged measurements.

Test: TIMS collisional cross section (CCS, N2) of the lipid ion; higher = larger ion cross section
Conditions: ionization mode: positive, one isomer drawn

SMILES | TIMS collisional cross section (sample type: Liver) | TIMS collisional cross section (sample type: plasma) | TIMS collisional cross section (sample type: HeLa)
CCCCC/C=C\C/C=C\CCCCCCCC(=O)O[C@H](COC(=O)CCCCCCCCCCCCCCC)COP(=O)(O)OCCN [PE 16:0_18:2] (ion (formula + adduct): [C39H74NO8P+H] 1+) | 272.9 Å² | 273 Å² | –
CCCCCCCCCCCCCCCC(=O)O[C@H](CO)COP(=O)(O)OCCN [LPE 16:0] (ion (formula + adduct): [C21H44NO7P+H] 1+) | 214.5 Å² | – | –
CCCCCCCC/C=C\C/C=C\C/C=C\CCCC(=O)O[C@H](COC(=O)CCCCCCCCCCCCCCC)COP(=O)([O-])OCC[N+](C)(C)C [PC 16:0@_20:3] (ion (formula + adduct): [C44H82NO8P+H] 1+) | 289.8 Å² | – | –
CCCCCCCCCC/C=C\CCCCCCCCCC(=O)OC[C@@H](O)COP(=O)([O-])OCC[N+](C)(C)C [LPC 22:1] (ion (formula + adduct): [C30H60NO7P+H] 1+) | – | 247.6 Å² | 247.3 Å²
CCCCC/C=C\C/C=C\C/C=C\C/C=C\CCCC(=O)O[C@H](COC(=O)CCCCCCCCCCCCC)COP(=O)([O-])OCC[N+](C)(C)C [PC 14:0@_20:4] (ion (formula + adduct): [C42H76NO8P+H] 1+) | – | 282 Å² | –
CCCCC/C=C\C/C=C\C/C=C\C/C=C\CCCC(=O)O[C@@H](CO)COC(=O)CCCCCCCCCCCCCCC [DG 16:0_20:4_0:0] (ion (formula + adduct): [C39H68O5+NH4] 1+) | 263.8 Å² | 263.6 Å² | 263.4 Å²
CCCCC/C=C\C/C=C\CCCCCCCCCCCC(=O)O[C@H](COC(=O)CCCCCCC/C=C\CCCCCCCC)COP(=O)(O)OCCN [PE 18:1_22:2@] (ion (formula + adduct): [C45H84NO8P+H] 1+) | 291.5 Å² | – | –
CCCCCCCCCCCCCCCCCC(=O)OC[C@H](COP(=O)(O)OCCN)OC(=O)CCCCCCCCCCCCCCC [PE 18:0@_16:0] (ion (formula + adduct): [C39H78NO8P+H] 1+) | – | – | 280.3 Å²
CC/C=C\C/C=C\C/C=C\C/C=C\C/C=C\CCCC(=O)O[C@H](COC(=O)CCCC/C=C\C/C=C\C/C=C\CCCCC)COP(=O)([O-])OCC[N+](C)(C)C [PC 18:3_20:5] (ion (formula + adduct): [C46H76NO8P+H] 1+) | – | 288.2 Å² | –
CC/C=C\C/C=C\C/C=C\C/C=C\C/C=C\C/C=C\CCC(=O)O[C@H](COC(=O)CCCCCCCCCCCCCCCCC)COP(=O)([O-])OCC[N+](C)(C)C [PC 18:0_22:6] (ion (formula + adduct): [C48H84NO8P+H] 1+) | 297.9 Å² | – | –
CCCCCC/C=C\CCCCCCCC(=O)O[C@H](COC(=O)CCCCCCCCCCCCCCC)COP(=O)([O-])OCC[N+](C)(C)C [PC 16:0_16:1@] (ion (formula + adduct): [C40H78NO8P+H] 1+) | – | – | 282 Å²
CCCCC/C=C\C/C=C\C/C=C\CCCCCCC(=O)OC[C@@H](O)COP(=O)([O-])OCC[N+](C)(C)C [LPC 20:3_0:0] (ion (formula + adduct): [C28H52NO7P+H] 1+) | 231.55 ± 1.1 Å² | 232.43 ± 1.2 Å² | –
CCCCC/C=C\C=C\CCCCCCCCC(=O)O[C@H](COC(=O)CCCCCCCCCCCCCCC)COP(=O)([O-])OCC[N+](C)(C)C [PC 16:0@_18:2] (ion (formula + adduct): [C42H80NO8P+H] 1+) | 283.5 Å² | 284.9 Å² | –
CC/C=C/C/C=C/C/C=C/C/C=C/C/C=C/C/C=C/CCC(=O)O[C@H](COC(=O)CCCCCCCCCCCCCCC)COP(=O)([O-])OCC[N+](C)(C)C [PC 16:0_22:6] (ion (formula + adduct): [C46H80NO8P+H] 1+) | – | 292 Å² | 291.8 Å²
CCCCC/C=C\C/C=C\C/C=C\C/C=C\CCCC(=O)OC[C@@H](O)COP(=O)(O)O [LPA 20:4_0:0] (ion (formula + adduct): [C23H39O7P+H] 1+) | – | 205 Å² | –
CCCCCCCCCCCCCCCCCC(=O)OC[C@H](CO)OC(=O)CCCCCCCCCCCCCCC [DG 18:0_16:0_0:0] (ion (formula + adduct): [C37H72O5+NH4] 1+) | 265.6 Å² | 265.6 Å² | –
CCCCC/C=C\C/C=C\C/C=C\C/C=C\CCCC(=O)OC[C@H](COP(=O)(O)OCCN)OC(=O)CCC/C=C\C/C=C\C/C=C\C/C=C\CCCCC [PE 20:4_20:4] (ion (formula + adduct): [C45H74NO8P+H] 1+) | 279.6 Å² | – | 280.6 Å²
CCCCCCCC/C=C\C/C=C\CCCCC(=O)O[C@H](COC(=O)CCCCCCC/C=C\CCCCCCCC)COP(=O)([O-])OCC[N+](C)(C)C [PC 18:1_18:2] (ion (formula + adduct): [C44H82NO8P+H] 1+) | – | 289.8 Å² | –
CCCCCCCCCCCCCCCCC(=O)OC[C@@H](COC(=O)CCCCCCCCCCCCC)OC(=O)CCCCCCCCCCCCCCC [TG 14:0_16:0_17:0] (ion (formula + adduct): [C50H96O6+NH4] 1+) | 311.5 Å² | – | –
CCCCCCCCCCCCCCCC(=O)OC[C@@H](COC(=O)CCCCCCCCCCC)OC(=O)CCCCCCCCCCC [TG 12:0_12:0_16:0] (ion (formula + adduct): [C43H82O6+NH4] 1+) | – | – | 288 Å²
CCCCC/C=C\C/C=C\CCCCCCCCCC(=O)O[C@H](COC(=O)CCCCCCC/C=C\CCCCCCCC)COP(=O)(O)OCCN [PE 18:1@_20:2] (ion (formula + adduct): [C43H80NO8P+H] 1+) | 283.3 Å² | – | –
CC/C=C\C/C=C\C/C=C\C/C=C\C/C=C\CCCCCC(=O)OC[C@@H](COC(=O)CCCCCCCCCCCCC)OC(=O)CCCCCCCCCCCCCCC [TG 14:0_16:0_22:5] (ion (formula + adduct): [C55H96O6+NH4] 1+) | – | – | 318 Å²
CCCCCCCCCCCCCCC(=O)OC[C@H](COP(=O)(O)OC[C@H](N)C(=O)O)OC(=O)CCCCCCCCCCCCC [PS 15:0_14:0] (ion (formula + adduct): [C35H68NO10P+Na] 1+) | 270.3 Å² | – | –
CCCCC/C=C\C/C=C\CCCCCCCCCCCC(=O)O[C@@H](CO)COC(=O)CCCCCCC/C=C\C/C=C\CCCCC [DG 18:2_22:2_0:0] (ion (formula + adduct): [C43H76O5+NH4] 1+) | 272.5 Å² | – | –
CC/C=C\C/C=C\C/C=C\C/C=C\C/C=C\C/C=C\CCC(=O)OC[C@@H](O)COP(=O)([O-])OCC[N+](C)(C)C [LPC 22:6] (ion (formula + adduct): [C30H50NO7P+H] 1+) | 234.5 Å² | 233.5 ± 1.3 Å² | 232.4 Å²

Second part, the molecule after the results:

TIMS collisional cross section (sample type: Liver) | TIMS collisional cross section (sample type: plasma) | TIMS collisional cross section (sample type: HeLa) | SMILES
– | 315.8 Å² | – | CC/C=C\C/C=C\C/C=C\CCCCCCCC(=O)OC[C@@H](COC(=O)CCCCCCCCCCCCCCC)OC(=O)CCCCCCC/C=C\C/C=C\CCCCC [TG 16:0_18:2_18:3] (ion (formula + adduct): [C55H96O6+NH4] 1+)
– | 333.9 Å² | – | CCCCC/C=C\C/C=C\C/C=C\CCCCCCCCC(=O)OC[C@@H](COC(=O)CCCCCCCCCCCCCCC)OC(=O)CCCCCCCCCCCCCCCCCCC [TG 16:0_20:0_22:3] (ion (formula + adduct): [C61H112O6+Na] 1+)
327.3 Å² | 327 Å² | – | CC/C=C\C/C=C\C/C=C\C/C=C\C/C=C\C/C=C\CCC(=O)OC[C@@H](COC(=O)CCCCCCC/C=C\C/C=C\CCCCC)OC(=O)CCCCCCC/C=C\C/C=C\CCCCC [TG 18:2_18:2_22:6] (ion (formula + adduct): [C61H98O6+NH4] 1+)
326.4 Å² | – | – | CCCCC/C=C\C/C=C\C/C=C\C/C=C\CCCC(=O)OC[C@@H](COC(=O)CCCCCCCCCCCCCCCC)OC(=O)CCCCCCC/C=C\C/C=C\CCCCC [TG 17:0_18:2_20:4] (ion (formula + adduct): [C58H100O6+NH4] 1+)
– | – | 324 Å² | CC/C=C\C/C=C\C/C=C\C/C=C\C/C=C\C/C=C\CCC(=O)OC[C@@H](COC(=O)CCCCCCCCCCCCCCC)OC(=O)CCCCCCCCCCCCCCC [TG 16:0_16:0_22:6] (ion (formula + adduct): [C57H98O6+NH4] 1+)
– | 340.8 Å² | – | CCCCC/C=C\C/C=C\CCCCCCCC(=O)OC[C@H](COC(=O)CCCCCCCCCCC/C=C\CCCCCCCC)OC(=O)CCCCCCCCC/C=C\CCCCCCCC [TG 18:2_20:1_22:1] (ion (formula + adduct): [C63H114O6+NH4] 1+)
317.9 Å² | – | – | CCCCCCC/C=C\CCCCCCCC(=O)OC[C@@H](COC(=O)CCCCCCCCCCCCCCC)OC(=O)CCCCCCCCCCCCCCCC [TG 16:0_17:0_17:1] (ion (formula + adduct): [C53H100O6+NH4] 1+)
– | – | 328.5 Å² | CC/C=C\C/C=C\C/C=C\C/C=C\C/C=C\CCCCCC(=O)OC[C@@H](COC(=O)CCCCCCCCCCCCCCC)OC(=O)CCCCCCC/C=C\CCCCCCCC [TG 16:0_18:1_22:5] (ion (formula + adduct): [C59H102O6+NH4] 1+)
328.2 Å² | – | – | CCCCCC/C=C\CCCCCCCC(=O)OC[C@H](COC(=O)CCCCCCCCC/C=C\CCCCCCCC)OC(=O)CCCCCCCCCCCCCCCCC [TG 16:1_18:0_20:1] (ion (formula + adduct): [C57H106O6+NH4] 1+)
315.3 Å² | – | – | CCCCCCCC/C=C\CCCCCCCC(=O)OC[C@@H](COC(=O)CCCCCCCCCCCCC)OC(=O)CCCCCCCCCCCCCCCC [TG 14:0_17:0_18:1] (ion (formula + adduct): [C52H98O6+NH4] 1+)
– | – | 316.5 Å² | CCCCCC/C=C\CCCCCCCC(=O)OC[C@H](COC(=O)CCCCCCC/C=C\CCCCCCCC)OC(=O)CCCCCCC/C=C\CCCCCCC [TG 16:1_17:1_18:1] (ion (formula + adduct): [C54H98O6+NH4] 1+)
